Patent US7166275B2, “Compositions containing phenethyl aryl esters as solubilizing agents for active organic compounds” (ISP Investments Inc., priority 2003, dated 2007)

Columns and labels:
[1] = Solubility of solid organic sunscreens (Escalol 517, Escalol 567) in various solvents; format: physicochemical; settings: solutions prepared at 50° C., stood 1 week at 25° C., seeded
Description: A small seed crystal was added at 25° C. to hasten equilibration.

[2] = Solubility of active compounds in 2-phenylethyl benzoate, determined by GLC; format: physicochemical; settings: for Solubility (soluble up to) in 2-phenylethyl benzoate: solvent 2-phenylethyl benzoate, 25° C.
Description: Predetermined weight/weight (w/w) solutions were prepared at 50° C. using a given solvent and Escalol® 517 or Escalol® 567. […] A small seed crystal was added at 25° C. to hasten equilibration. Solubility limits were determined by observation of the amount of solid present, and then more precisely by a GLC method (see Example 15).
5-Chloro-2-(2,4-dichlorophenoxy)phenol (Triclosan) has bacteriostatic properties and is used as a disinfectant and preservative in cosmetic and detergent preparations. It is soluble up to 69% w/w in 2-phenylethyl benzoate, as determined by GLC. Thus, 50% w/w and 60% w/w mixtures were homogeneous solutions at 25° C., but a 70% w/w solution prepared at 70° C. precipitated a small amount of solid when seeded at 25° C. and allowed to stand for 3 days.
An 80% w/w solution prepared from 8.002 g of Triclosan and 2.009 g of 2-phenylethyl benzoate precipitated a significant amount of solid at 25° C. A 23.3-mg sample of the supernatant was dissolved in 1.00 mL of chloroform and 1.00 μL was injected via automatic injector into a GLC instrument. The areas of the 2-phenylethyl benzoate and Triclosan peaks were 9381 and 12953, respectively. The mixture was heated at 70° C. until it was homogeneous, and an 18.2-mg sample was dissolved and injected in the same manner. […] (Note that the amount injected was 3.6 μg+14.6 μg=18.2 μg.) Therefore, under our GLC conditions the response factors were 1240 units/μg and 770 units/μg, respectively. Then, the respective amounts of each component in the supernatant were 9381/1240 =7.6 μg and 12953/770 =16.8 μg, which corresponds to 69% w/w Triclosan.

Row | SMILES | Solubility of Escalol 517 in the solvent ([1]; solute Escalol 517 (avobenzone)) | Solubility of Escalol 567 in the solvent ([1]; solute Escalol 567 (benzophenone-3)) | Solubility (soluble up to) in 2-phenylethyl benzoate/N-methylpyrrolidinone (1:1 w/w) ([2]; solvent 2-phenylethyl benzoate/N-methylpyrrolidinone (1:1 w/w)) | Solubility (soluble up to) in 2-phenylethyl benzoate [2]
1 | O=C(OCCc1ccccc1)c1ccccc1C(=O)OCCc1ccccc1 [Di-2-phenylethyl phthalate, di-2-phenylethyl phthalate] | 30 % w/w | 31 % w/w | – | –
2 | CCCN(CCC)c1c([N+](=O)[O-])cc(C(F)(F)F)c(N)c1[N+](=O)[O-] [Prodiamine, 5-Dipropylamino-α,α,α-trifluoro-4,6-dinitro-o-toluidine] | – | – | 24 % w/w | 5 % w/w
3 | Oc1cc(Cl)ccc1Oc1ccc(Cl)cc1Cl [Triclosan, 5-Chloro-2-(2,4-dichlorophenoxy)phenol] | – | – | – | 69 % w/w
